The target of experiment [1] is vaccinia mRNA (nucleoside-2′-O—) methyltransferase (Vaccinia virus, UniProt P07617). Format: biochemical.
Experiment [2] deals with rabbit reticulocyte lysate. In kind it is biochemical.
A further experiment has as its target vaccinia capping enzyme (Vaccinia virus, UniProt P04298). Format: biochemical.
The subject of another experiment is wheat germ lysate. Format: biochemical.
Experiment [3] relates to tobacco acid pyrophosphatase (TAP). Format: biochemical.
Experiment [4] addresses RNA guanyltransferase activity of the vaccinia capping enzyme system (Vaccinia virus, UniProt P04298). The following applies: permeabilized vaccinia virions; cited from earlier work.
The subject of a further experiment is BDCM cells. Format: cell-based. The conditions noted are these: for relative translation efficiency: poly(A)-tailed Renilla luciferase RNA.
For experiment [5], the target named is vaccinia capping enzyme (guanine 7-methyltransferase activity) (Vaccinia virus, UniProt P04298). Format: biochemical.
In another experiment the test system is HeLa cells. In kind it is cell-based. The conditions noted are these: GTP-capped poly(A)-tailed Renilla luciferase RNA.
Where [6] appears, read: rabbit reticulocyte lysate, poly(A)-tailed Renilla luciferase RNA, cap 0 structure, GTP-capped cap 0 RNA = 100%.
Where [7] appears, read: rabbit reticulocyte lysate, poly(A)-tailed Renilla luciferase RNA, cap I structure.
[8] abbreviates: rabbit reticulocyte lysate, poly(A)-tailed firefly luciferase RNA, cap I structure.
The mark [9] stands for this setting: wheat germ lysate, poly(A)-tailed Renilla luciferase RNA, cap 0 structure, GTP-capped cap 0 RNA = 100%.
[10] abbreviates: wheat germ lysate, poly(A)-tailed Renilla luciferase RNA, cap I structure.
Setting [11] is: capped RNA prepared per Method 6.
The mark [12] stands for this setting: cap 0 structure, GTP-capped cap 0 RNA = 100%.
[13] abbreviates: cap I structure, GTP-capped RNA = 100%.

SMILES strings stand for the structures. Where “and” joins values, the source holds several entries; their conditions need not be identical. Equal entries are not always repeated. Where two headings read alike, the source gives them in different places.

Consider `CO[C@H]1[C@@H](O)[C@H](n2cnc3c(=O)[nH]c(N)nc32)O[C@@H]1COP(=O)(O)OP(=O)(O)OP(=O)(O)O` [3′-OMe-GTP, 3′-O-methylguanosine-5′-triphosphate], for which, in experiment [1], the “methylation of the 2′-hydroxyl of the 5′-penultimate nucleotide by mRNA (nucleoside-2′-O—) methyltransferase” value is reported as 52-base radioactive band was observed. Further, the “average relative translation efficiency” value in experiment [2] (setting [6]) is given as 82%; in [2] (setting [7]) it was 84%; in experiment [2] (setting [8]), 137%. Moreover, the “conversion of 51-base primary RNA transcript to 52-base capped RNA (in words)” value at vaccinia capping enzyme is recorded as “quantitatively converted”. In addition, the relative translation efficiency in the experiment with wheat germ lysate (setting [9]) came out at 39%; with wheat germ lysate (setting [10]), 43%. In [3] (setting [11]), the “removal of the cap nucleotide by tobacco acid pyrophosphatase (51-base band on PAGE)” value (from here on “removal of the cap nucleotide”) is on record as 51-base band was observed.

Turning to `[N-]=[N+]=N[C@@H]1[C@H](O)[C@@H](COP(=O)(O)OP(=O)(O)OP(=O)(O)O)O[C@H]1n1cnc2c(=O)[nH]c(N)nc21` [2′-azido-dGTP, 2′-azido-2′-deoxyguanosine-5′-triphosphate], the “methylation of the 2′-hydroxyl of the 5′-penultimate nucleotide by mRNA (nucleoside-2′-O—) methyltransferase” value in [1] was 52-base radioactive band was observed. The “average relative translation efficiency” value was 99% in [2] (setting [6]), 79% in [2] (setting [7]) and 107% in experiment [2] (setting [8]). In addition, the relative translation efficiency in the experiment with wheat germ lysate (setting [9]) was 41%; in the experiment with wheat germ lysate (setting [10]) it was 42%.

For the molecule `Nc1nc2c(ncn2[C@H]2C[C@H](O)[C@@H](COP(=O)(O)OP(=O)(O)OP(=O)(O)O)O2)c(=O)[nH]1` [2′-dGTP, 2′-deoxyguanosine-5′-triphosphate], the “activity relative to GTP in [^32P]-PPi exchange assay” value in experiment [4] was “approximately 6%”. The “methylation of the 2′-hydroxyl of the 5′-penultimate nucleotide by mRNA (nucleoside-2′-O—) methyltransferase” value in experiment [1] was 52-base radioactive band was observed. In addition, the “average relative translation efficiency” value in experiment [2] (setting [6]) was 118%; in experiment [2] (setting [7]), 84%; in experiment [2] (setting [8]), 128%. On vaccinia capping enzyme, the “conversion of 51-base primary RNA transcript to 52-base capped RNA (in words)” value is reported as “quantitatively converted”. For the same molecule, the relative translation efficiency in the experiment on wheat germ lysate (setting [9]) and in the experiment with wheat germ lysate (setting [10]) was 54% throughout. Also, in experiment [3] (setting [11]), the “removal of the cap nucleotide” value is recorded as 51-base band was observed.

For the molecule `COc1nc(N)nc2c1ncn2[C@@H]1O[C@H](COP(=O)(O)OP(=O)(O)OP(=O)(O)O)[C@@H](O)[C@H]1O` [O^6-methyl-GTP, O^6-methylguanosine-5′-triphosphate], the relative translation efficiency is listed as 115% in the experiment on BDCM cells (setting [12]), 117% in the experiment on BDCM cells (setting [13]), 80% with wheat germ lysate (setting [9]) and 59% in the experiment with wheat germ lysate (setting [10]). In addition, the entries for the “average relative translation efficiency” value in [2] (setting [6]), in experiment [2] (setting [7]) and in experiment [2] (setting [8]) were 167%, 122% and 97%, respectively. Also, the “conversion of 51-base primary RNA transcript into 52-base capped RNA (in words)” value in [5] is “quantitatively converted”. Moreover, the “methylation of the N^7 position of the cap nucleotide (radioactive methyl group in 52-base band)” value in experiment [5] is “catalyzed formation of N^7-methylated capped RNA”. At vaccinia capping enzyme, the “51-base primary RNA transcript converted into 52-base capped RNA” value is listed as “approximately 70%”. The “substrate for the capping enzyme system (51-base primary RNA transcript converted into 52-base capped RNA)” value on vaccinia capping enzyme is listed as “substrates for the capping enzyme system”.

In the case of `Nc1nc2c(ncn2[C@@H]2O[C@H](COP(=O)(O)OP(=O)(O)OP(=O)(O)O)[C@@H](O)[C@H]2F)c(=O)[nH]1` [2′-F-dGTP, 2′-fluoro-2′-deoxyguanosine-5′-triphosphate], the “methylation of the 2′-hydroxyl of the 5′-penultimate nucleotide by mRNA (nucleoside-2′-O—) methyltransferase” value in [1] is reported as 52-base radioactive band was observed. Also, the “average relative translation efficiency” value in experiment [2] (setting [6]) is recorded as 55%; in [2] (setting [7]) it was 107%; in experiment [2] (setting [8]) it was 133%. In addition, the relative translation efficiency was 53% in the experiment on wheat germ lysate (setting [9]) and 61% in the experiment on wheat germ lysate (setting [10]). Further, the “removal of the cap nucleotide” value in [3] (capped RNA prepared per Method 6 except in the absence of S-adenosyl-L-methionine) is given as 51-base band was observed.

Regarding `Nc1nc2c(ncn2[C@@H]2O[C@H](COP(=O)(O)OP(=O)(O)OP(=O)(O)O)[C@@H](O)[C@H]2N)c(=O)[nH]1` [2′-amino-dGTP, 2′-amino-2′-deoxyguanosine-5′-triphosphate], the relative translation efficiency is 150% with BDCM cells (setting [12]), 177% in the experiment on BDCM cells (setting [13]), 90% in the experiment on wheat germ lysate (setting [9]) and 110% in the experiment with wheat germ lysate (setting [10]). Also, the “methylation of the 2′-hydroxyl of the 5′-penultimate nucleotide by mRNA (nucleoside-2′-O—) methyltransferase” value in [1] is 52-base radioactive band was observed. The figures for the “average relative translation efficiency” value in experiment [2] (setting [6]), in [2] (setting [7]) and in experiment [2] (setting [8]) were 148%, 144% and 100%, respectively. The “conversion of 51-base primary RNA transcript to 52-base capped RNA (in words)” value at vaccinia capping enzyme is reported as “quantitatively converted”. The “removal of the cap nucleotide” value in experiment [3] (setting [11]) is 51-base band was observed.

`CO[C@@H]1[C@H](O)[C@@H](COP(=O)(O)OP(=O)(O)OP(=O)(O)O)O[C@H]1n1cnc2c(=O)[nH]c(N)nc21` [2′-OMe-GTP, 2′-O-methylguanosine-5′-triphosphate]: in experiment [1], the “methylation of the 2′-hydroxyl of the 5′-penultimate nucleotide by mRNA (nucleoside-2′-O—) methyltransferase” value is on record as 52-base radioactive band was observed. Further, in [2], the “average relative translation efficiency” value is 132% and 97% and 170%. Besides, the relative translation efficiency in the experiment on wheat germ lysate is 36% and 47%. In experiment [3], the “removal of the cap nucleotide” value is recorded as 51-base band was observed.

`Nc1nc2c(ncn2[C@@H]2O[C@H](COP(=O)(O)OP(=O)(O)OP(=O)(O)O)[C@@H](O)[C@H]2O)c(=O)[nH]1` [GTP, reference compound]: the “RLUs with cap I structure relative to cap 0 structure” value with BDCM cells (GTP-capped poly(A)-tailed Renilla luciferase RNA) is “about 1.3 times higher”. In addition, in experiment [5], the “conversion of 51-base primary RNA transcript into 52-base capped RNA (in words)” value is recorded as “quantitatively converted” and the “methylation of the N^7 position of the cap nucleotide (radioactive methyl group in 52-base band)” value is on record as “contained the radioactive methyl group”. For the same molecule, the “RLUs with cap I structure relative to cap 0 structure” value in the experiment on HeLa cells is reported as “about 2.2 times higher”. For the same molecule, the “conversion of 51-base primary RNA transcript to 52-base capped RNA (in words)” value on vaccinia capping enzyme is “quantitatively converted”.

For the molecule `Cn1c(N)nc2c(ncn2[C@@H]2O[C@H](COP(=O)(O)OP(=O)(O)OP(=O)(O)O)[C@@H](O)[C@H]2O)c1=O` [N^1-methyl-GTP, N^1-methylguanosine-5′-triphosphate], in experiment [5], the “methylation of the N^7 position of the cap nucleotide (radioactive methyl group in 52-base band)” value is recorded as “did not contain any radioactivity”. Moreover, on vaccinia capping enzyme, the “conversion of 51-base primary RNA transcript to 52-base capped RNA (in words)” value is given as “quantitatively converted” and the “substrate for the capping enzyme system (51-base primary RNA transcript converted into 52-base capped RNA)” value is recorded as “substrates for the capping enzyme system”. This molecule also showed a relative translation efficiency in the experiment on wheat germ lysate of 31%.
